Data from patent publication US5215986A, “5-hydroxy-2-pyrimidinylmethylene oxaza heterocycles” (Warner-Lambert Company, priority 1992, dated 1993).

Key:
[1] = test system: 5-Lipoxygenase; experiment: ARBL whole cell 5-lipoxygenase assay (LTB4 formation in RBL-1 cells); assay type: cell-based, rat; details: 10 μm concentration, A23187 stimulated, LTB4 by RIA
Description: (§1) ARBL/ARBC Whole Cell 5-Lipoxygenase and Cyclooxygenase Assays The rat basophilic leukemia cell line (RBL 1) was obtained from the American Type Culture Collection (Rockville, Md.). Radioimmunoassay (RIA) kits of LTB4 and PGF2α were obtained from Amersham (Arlington Heights, Ill.) and Seragen (Boston, Mass.), respectively. RBL-1 cells are grown in suspension culture in Eagle's minimum essential medium supplemented with 12% fetal bovine serum at 37° C. in an incubator supplied with air 5% carbon dioxide. Cells are harvested by centrifugation. They are washed with cold phosphate buffered saline pH 7.4 (PBS; NaCl, 7.1 g; Na2 HPO4, 1.15 g; KH2 PO4, 0.2 g; and KCl, 0.2 g/l). Cells are finally suspended in PBS containing 1.0 mM calcium at a density of 2×10^6 cells/ml. Cells are incubated with and without test agent (in DMSO) (1% DMSO is without effect on arachidonic acid metabolism) for ten minutes at room temperature. Calcium ionophore A23187 (5 μM) is added and cells are incubated for seven minutes at 37° C. The reaction is stopped by chilling the tubes on ice for ten minutes. Cells are separated by centrifugation and the supernatant is stored at -20°. Aliquots (100 μl) are analyzed for LTB4 and PGF2α using radioimmunoassay kits as provided by the supplier. […]

[2] = test system: Cyclooxygenase; experiment: ARBC whole cell cyclooxygenase assay (PGF2α formation in RBL-1 cells); assay type: cell-based, rat; details: 10 μm, A23187 stimulated, PGF2α by RIA
Description: as §1

With `CN1OCC/C(=C\c2nc(C(C)(C)C)c(O)c(C(C)(C)C)n2)C1=O` [(E)-4-[[4,6-Bis(1,1-dimethylethyl)-5-hydroxy-2-pyrimidinyl]methylene]tetrahydro-2-methyl-2H-1,2-oxazin-3-one] the “inhibition for ARBL” value [1] was 84% and the “inhibition for ARBC” value [2] was 88%.
